Measurements reported in US11219613B2, “Pharmaceutical composition for preventing and treating liver diseases, containing, as active ingredient, cromolyn or pharmaceutically acceptable salt thereof” (ONCOCROSS CO., LTD., priority 2015, dated 2022).
Like-named read-outs stand apart in the source and are kept apart here.

Experiments:
LX-2 cell line [1] = tested on: LX-2 cell line
Method: (§1) Specifically, while gradually increasing the amounts of cromolyn and ionomycin in an independent cell culture medium, the amount of LDH released into the above culture medium was measured, and the experiment was conducted by using a LDH cytotoxicity assay kit (Cayman Chemical, USA) according to the method provided by the manufacturer. First, the cells were grown in DMEM (Dulbecco's Modified Eagle Medium), to which 10% of heat inactivated fetal bovine serum and 1% of penicillin and streptomycin were added, at 37° C. and 5% CO2. Then, the above cells were seeded in a 96-well plate at a density of 2×10^4/well. Cromolyn and ionomycin were added thereto in increasing amounts. After 48 hours, 100 μL of the supernatant from each well was transferred to the new plates, 100 μL of the reaction solution was added to each well, the plate was incubated with gentle shaking on an orbital shaker for 30 minutes at the room temperature, and then the absorbance was measured at 490 nm with a plate reader.

HSC-T6 cell line [2] = tested on: HSC-T6 cell line
Method: as §1

[3] = tested on: E-cadherin in primary hepatocytes; assay: E-cadherin expression by Western Blots; type: cell-based, mouse; conditions: primary hepatocytes treated with TGF-β
Method: (§2) Further, the experiment on hepatocytes was conducted by isolating the primary hepatocyte from the liver of a male C57BL6 mouse of around 6 weeks old.
(§3) Specifically, cell motility according to treatment with cromolyn was analyzed by using the known wound assay in the presence and absence of TGF-β (2 ng/mL), and the healing distance of the wound was measured by […]. Further, after treating with TGF-β and cromolyn, changes in the E-cadherin expression was verified, which was confirmed by treating primary hepatocytes with TGF-β (Carl Bio Chem, USA) and then conducting Western Blots using the antibody against E-cadherin (H-180) (Santa Cruz, USA). In addition, tubulin was used as the loading control.

LX-2 cell line [4] = assay: Sirius Red total collagen detection; type: cell-based; conditions: LX-2, increasing level, 48 hours
Method: (§4) To confirm whether cromolyn inhibits the production of TGF-β and the accumulation of collagen, which are known as the major secretion marker of activated HSCs, LX-2 and HCT-T6 cell lines were analyzed by ELISA. Specifically, collagen was detected by using the Sirius Red Total Collagen Detection Kit (Chondrex, USA). The suspended cells were seeded in a 24-well plate at a density of 1×10^4 cells/well, and treated with various amounts of cromolyn for 48 hours. Then, the diluted solutions or standard samples were added to 1.5-mL centrifuge tubes in duplicate. Subsequently, each tube was incubated for 20 minutes at room temperature together with 500 μl of the Sirius Red solution. The supernatant was removed, the tubes were washed twice, and 200 μL of the final supernatant was transferred to a 96-well plate. The optical density was measured at 510-550 nm.

HSC-T6 cell line [5] = assay: Sirius Red total collagen detection; type: cell-based; conditions: HSC-T6, increasing level, 48 hours
Method: as §4

LX2 cell line = assay: MTT assay, cell proliferation; type: cell-based; conditions: for effect on proliferation at low level: LX2, 0.1 μM; for proliferation activity: LX2, increasing levels, compared to untreated control
Method: (§5) To confirm the proliferation activity on hepatic stellate cells, a MTT (3-(4,5-dimethylthiazol-2-yl)-2,5-diphenyltetrazolium bromide) assay was performed, and the HSC-T6 and LX2 cell lines obtained from <Example 1> above were used as hepatic stellate cells.
(§6) Specifically, the MTT assay was performed by seeding the cell suspensions of each cell onto a 96-well plate at a density of 5×10^4 cells/well. Then, the MIT stock solution (5 mg/mL) in which MTT was dissolved in PBS (phosphate-buffered saline, pH 7.2) was prepared, and 15 μL of the MTT solution was added to each well after filtration. After culturing for 4 hours at 37° C. and 5% CO2, the reaction was terminated by adding 185 μL of solubilization solution to each well, and then the cell viability was measured at an absorbance of 620 nm using an ELISA (enzyme-linked immunosorbent assay) reader. Furthermore, cell viability was measured by calculating the ratio of absorbance of the cells treated/untreated with the candidate agents.

HSC-T6 cell line [6] = assay: MTT assay, cell proliferation; type: cell-based; conditions: for effect on proliferation at low level: HSC-T6, 0.1 μM; for proliferation activity: HSC-T6, increasing levels, compared to untreated control
Method: as §5, §6

primary hepatocytes [7] = assay: SA-β-gal (Senescence β-galactosidase) staining; type: cell-based, mouse; conditions: three days in vitro culture
Method: as §2
Since senescence is a typical phenomenon of fibrosis, the anti-senescence effect of cromolyn on hepatocytes was confirmed by using β-galactosidase staining, which is a senescence index.
SA-β-gal (Senescence β-galactosidase) staining was performed by using the Senescence β-Galactosidase Staining Kit (Biovision, USA) according to the method provided by the manufacturer. Specifically, after washing with PBS, the cells were fixed by 2% formaldehyde and 0.2% glutaraldehyde in PBS for 15 minutes at room temperature. The fixed cells were washed with PBS, and incubated together with X-gal staining solution for 24 hours at 37° C. The cells were visualized, and photographs were taken with the Zeiss PALM laser capture microdissection microscope (Zeiss, Germany).

primary hepatocytes [8] = assay: wound assay, cell motility; type: cell-based, mouse
Method: as §2
The effect of cromolyn on restoration in hepatocytes was verified. […] Therefore, the present inventors confirmed the motility of primary hepatocytes by treating cromolyn in the presence and absence of TGF-β, which induces EMT.
as §3

LX-2 cell line [9] = assay: TGF-β production by ELISA; type: cell-based; conditions: LX-2, different concentrations
Method: (§7) To confirm whether cromolyn inhibits the production of TGF-β and the accumulation of collagen, which are known as the major secretion marker of activated HSCs, LX-2 and HCT-T6 cell lines were analyzed by ELISA.

HSC-T6 cell line [10] = assay: TGF-β production by ELISA; type: cell-based; conditions: HSC-T6, different concentrations
Method: as §7

O=C(O)c1cc(=O)c2c(OCC(O)COc3cccc4oc(C(=O)O)cc(=O)c34)cccc2o1 [cromolyn, cromoglicic acid]
cytotoxicity (LDH release) (LX-2 cell line [1]; human, 48 h): no cytotoxicity except at the high level (10 μM)
cytotoxicity (LDH release) (HSC-T6 cell line [2]; rat, 48 h): no cytotoxicity except at the high level (10 μM)
expression of E-cadherin [3]: significantly inhibit the decrease in the expression of E-cadherin in a concentration-dependent manner
released collagen (LX-2 cell line [4]): significantly decreases
released collagen (HSC-T6 cell line [5]): significantly decreases
effect on proliferation at low level (LX2 cell line): anti-proliferation effect was confirmed
proliferation activity (LX2 cell line): decrease
effect on proliferation at low level (HSC-T6 cell line [6]): did not show a significant effect
proliferation activity (HSC-T6 cell line [6]): decrease
number of β-galactosidase-positive cells (primary hepatocytes [7]): decrease in a concentration-dependent manner
motility of hepatocytes (primary hepatocytes [8]; absence of TGF-β, compared to untreated control): did not show a significant difference
inhibition of migration activity of hepatocytes in terms of migration distance (primary hepatocytes [8]; presence of TGF-β (2 ng/mL), 48 hours): 15%
production of TGF-β (LX-2 cell line [9]): inhibit the production of TGF-β in a concentration-dependent manner
production of TGF-β (HSC-T6 cell line [10]): inhibit the production of TGF-β in a concentration-dependent manner

C[C@H](CCC(=O)O)C[C@H](C)C[C@H](C)C(=O)/C=C(\O)[C@H](C)C[C@H](C)C/C=C/[C@@H](C)[C@@H](O)[C@@H](C)[C@@H](O)C[C@@H]1CC[C@@](C)([C@H]2CC[C@@](C)([C@@H](C)O)O2)O1 [ionomycin]
cytotoxicity (LDH release) (LX-2 cell line [1]; LX-2, increasing amounts, 48 hours (FIG. 2D)): induce cell death in a concentration dependent manner
cytotoxicity (LDH release) (HSC-T6 cell line [2]; HSC-T6, increasing amounts, 48 hours (FIG. 2C)): induce cell death in a concentration dependent manner
effect on proliferation at low level (LX2 cell line): anti-proliferation effect was confirmed
proliferation activity (LX2 cell line): decrease
effect on proliferation at low level (HSC-T6 cell line [6]): did not show a significant effect
proliferation activity (HSC-T6 cell line [6]): decrease
